Laboratory results taken from publication PMC7930822, “Phase I Trial to Evaluate the Tolerance, Pharmacokinetics and Efficacy of the Broad-Spectrum ErbB Family Inhibitor Larotinib Mesylate in Patients With Advanced Solid Tumors” (Frontiers in Pharmacology, 2021).
Where a name gives a salt, the structure may show the parent alone. Read-outs that look alike come from different tables or passages of the source.

Experiment: phase I plasma pharmacokinetics (non-compartmental, LC-MS/MS)
Format: in vivo, human
Conditions: plasma, plasma; for Tmax / Vd/F / AUC(0-t) / AUC(0-inf) / Cmax / half-life / AUC: human; for Tmax / Vd/F / AUC(0-t) / AUC(0-inf) / Cmax / half-life: po; for AUC: read-out: AUCτ,ss, mean (min–max)
Experimental: This was a phase I, single-center, open-label, dose-escalation study conducted at First Hospital of Jilin University, China (registration no.: ChiCTR-OPC-15007153 registered at http://www.chictr.org.cn). Larotinib mesylate hard capsules were produced and supplied by Sunshine Lake Pharma Co., Ltd (Guangdong Province, China) in different unit doses of […] under GMP condition. Seven dose levels were designed in the study: 50, 100, 150, 220, 300, 350, and 400 mg with administration stages labeled cycle 0, cycle 1, and subsequent treatment cycles. Patients received an oral single dose of larotinib mesylate after fasting during a 6-days cycle 0 to evaluate the tolerance and pharmacokinetic characteristics. After cycle 0, larotinib mesylate was continuously administered once daily for 28 days in cycle 1, and the tolerance and pharmacokinetic characteristics of multiple doses were evaluated (Figure 2). The patients who […] disease control (complete response [CR], partial response [PR], or stable disease [SD]) at the end of cycle one were permitted to participate in the subsequent 28-days treatment cycles until progressive disease (PD) or intolerance was observed.
Blood samples (4 ml) for pharmacokinetic analyses were collected in tubes containing K2EDTA anticoagulant. Blood samples were centrifuged at 3,000 rpm for 10 min at 4°C and stored at –80°C until liquid chromatography-mass spectrophotometry (LC-MS/MS) analysis. Urine and fecal samples were collected only when patients were given the150-mg and 220-mg dose levels at sampling time intervals of 0–4, 4–8, 8–12, 12–24, 24–48, 48–72, 72–96 and 96–120 h in cycle 0.
Linear mixed effects model was used to explore the dose exposure relationships. Dose proportionality was concluded if the 95% confidence interval (CI) of the linear regression slope was completely contained within the decision interval (1 + ln (0.8)/ln (8)∼1 + ln (1.25)/ln (8)). For urine and fecal data, the accumulative excretion rates of larotinib and M5 were calculated.
Bioanalysis was performed at Frontage Company (Shanghai, China). Validated high-performance LC-MS/MS method was used to quantify the concentrations of larotinib and M5 in plasma, urine and feces samples. Protein precipitation was employed for plasma, urine and feces processing. Plasma larotinib and M5 concentrations were determined using appropriate calibration curves obtained from standards in the range of 0.5–1,000 ng/ml. The interassay precision of the analysis method were 4.2–5.4% for larotinib and 3.9–4.3% for M5. The interassay accuracy of the analysis method were 100.4–103.4% for larotinib and 102.2–102.9% for M5, respectively.
Statistical analyses were performed using SAS software, version 9.2 (SAS Institute Inc., United States). Descriptive statistics were used to summarize continuous variables as cases, means with standard deviations (SDs), medians, quartiles, maximums and minimums. For categorical variables, frequencies and percentages were used. A linear mixed effects model, relating log-transformed Cmax and AUC parameters to log-transformed dose, was used to investigate dose proportionality.

[1] = multiple oral administration, 50 mg larotinib mesylate, steady state
[2] = multiple oral administration, 100 mg larotinib mesylate, steady state
[3] = multiple oral administration, 150 mg larotinib mesylate, steady state
[4] = multiple oral administration, 220 mg larotinib mesylate, steady state
[5] = multiple oral administration, 300 mg larotinib mesylate, steady state
[6] = multiple oral administration, 350 mg larotinib mesylate, steady state
[7] = multiple oral administration, 400 mg larotinib mesylate, steady state

`COc1cc2ncnc(Nc3ccc(F)c(Cl)c3)c2cc1OCCCN1C[C@@H]2OCCO[C@@H]2C1` [larotinib mesylate] gave a Tmax (300 mg, multiple oral administration, 300 mg larotinib mesylate, steady state, read-out: Tmax,ss, median (min–max)) of 5 h, a Vd/F (300 mg, multiple oral administration, 300 mg larotinib mesylate, steady state, read-out: Vz/F,ss, mean (min–max)) of 1060 L and an AUC(0-t) (300 mg, single oral administration, 300 mg larotinib mesylate, read-out: AUC0-24, mean (min–max)) of 2.69 µg·h/mL. The AUC(0-t) (300 mg, single oral administration, 300 mg larotinib mesylate, read-out: AUC0-t, mean (min–max)) was 4.88 µg·h/mL, the AUC(0-inf) (300 mg, single oral administration, 300 mg larotinib mesylate, read-out: AUC0-∞, mean (min–max)) was 5.55 µg·h/mL and the Cmax (300 mg, single oral administration, 300 mg larotinib mesylate, read-out: Cmax, mean (min–max)) was 0.267 µg/mL. The half-life (300 mg, single oral administration, 300 mg larotinib mesylate, read-out: T1/2, mean (min–max) (converted)) was 46.2 h, the Tmax (300 mg, single oral administration, 300 mg larotinib mesylate, read-out: Tmax, median (min–max)) was 5 h and the Vd/F (300 mg, single oral administration, 300 mg larotinib mesylate, read-out: Vz/F, mean (min–max)) was 4340 L. The AUC(0-t) (350 mg, multiple oral administration, 350 mg larotinib mesylate, steady state, read-out: AUC0-t,ss, mean (min–max)) was 35.9 µg·h/mL, the AUC(0-inf) (350 mg, multiple oral administration, 350 mg larotinib mesylate, steady state, read-out: AUC0-∞,ss, mean (min–max)) was 47.3 µg·h/mL and the Cmax (350 mg, multiple oral administration, 350 mg larotinib mesylate, steady state, read-out: Cmax,ss, mean (min–max)) was 0.695 µg/mL. It also gave a half-life (350 mg, multiple oral administration, 350 mg larotinib mesylate, steady state, read-out: T1/2,ss, mean (min–max) (converted)) of 58.6 h, a Tmax (350 mg, multiple oral administration, 350 mg larotinib mesylate, steady state, read-out: Tmax,ss, median (min–max)) of 5 h and a Vd/F (350 mg, multiple oral administration, 350 mg larotinib mesylate, steady state, read-out: Vz/F,ss, mean (min–max)) of 641 L. For the same molecule, the AUC(0-t) (350 mg, single oral administration, 350 mg larotinib mesylate, read-out: AUC0-24, mean (min–max)) was 3.24 µg·h/mL, the AUC(0-t) (350 mg, single oral administration, 350 mg larotinib mesylate, read-out: AUC0-t, mean (min–max)) was 6.12 µg·h/mL and the AUC(0-inf) (350 mg, single oral administration, 350 mg larotinib mesylate, read-out: AUC0-∞, mean (min–max)) was 6.83 µg·h/mL. For the same molecule, the Cmax (350 mg, single oral administration, 350 mg larotinib mesylate, read-out: Cmax, mean (min–max)) was 0.3 µg/mL, the half-life (350 mg, single oral administration, 350 mg larotinib mesylate, read-out: T1/2, mean (min–max) (converted)) was 44.6 h and the Tmax (350 mg, single oral administration, 350 mg larotinib mesylate, read-out: Tmax, median (min–max)) was 3.5 h. The Vd/F (350 mg, single oral administration, 350 mg larotinib mesylate, read-out: Vz/F, mean (min–max)) was 3800 L, the AUC(0-t) (400 mg, multiple oral administration, 400 mg larotinib mesylate, steady state, read-out: AUC0-t,ss, mean (min–max)) was 45 µg·h/mL and the AUC(0-inf) (400 mg, multiple oral administration, 400 mg larotinib mesylate, steady state, read-out: AUC0-∞,ss, mean (min–max)) was 70.4 µg·h/mL. It also gave a Cmax (400 mg, multiple oral administration, 400 mg larotinib mesylate, steady state, read-out: Cmax,ss, mean (min–max)) of 0.845 µg/mL, a half-life (400 mg, multiple oral administration, 400 mg larotinib mesylate, steady state, read-out: T1/2,ss, mean (min–max) (converted)) of 87 h and a Tmax (400 mg, multiple oral administration, 400 mg larotinib mesylate, steady state, read-out: Tmax,ss, median (min–max)) of 6 h. For the same molecule, the Vd/F (400 mg, multiple oral administration, 400 mg larotinib mesylate, steady state, read-out: Vz/F,ss, mean (min–max)) was 754 L, the AUC(0-t) (400 mg, single oral administration, 400 mg larotinib mesylate, read-out: AUC0-24, mean (min–max)) was 3.97 µg·h/mL and the AUC(0-t) (400 mg, single oral administration, 400 mg larotinib mesylate, read-out: AUC0-t, mean (min–max)) was 7.44 µg·h/mL. It also gave an AUC(0-inf) (400 mg, single oral administration, 400 mg larotinib mesylate, read-out: AUC0-∞, mean (min–max)) of 9.09 µg·h/mL, a Cmax (400 mg, single oral administration, 400 mg larotinib mesylate, read-out: Cmax, mean (min–max)) of 0.354 µg/mL and a half-life (400 mg, single oral administration, 400 mg larotinib mesylate, read-out: T1/2, mean (min–max) (converted)) of 68.6 h. The Tmax (400 mg, single oral administration, 400 mg larotinib mesylate, read-out: Tmax, median (min–max)) was 5 h, the Vd/F (400 mg, single oral administration, 400 mg larotinib mesylate, read-out: Vz/F, mean (min–max)) was 7410 L and the half-life (single oral dose, across 50–400 mg, read-out: mean t1/2) was 39.3 to 68.6 h. The Tmax (single oral dose, across 50–400 mg, read-out: median Tmax) was 3.5 to 6 h, the AUC [1] was 1.22 µg·h/mL and the AUC [2] was 1.97 µg·h/mL. The AUC [3] was 6.5 µg·h/mL, the AUC [4] was 10.3 µg·h/mL and the AUC [5] was 7.26 µg·h/mL. The AUC [6] was 13.2 µg·h/mL, the AUC [7] was 16.1 µg·h/mL and the “CL/F,ss, mean (min–max)” value [1] was 10.73 (7.513–12.58) L/h. The “CL/F,ss, mean (min–max)” value [2] was 21.17 (13.80–29.53) L/h, the “CL/F,ss, mean (min–max)” value [3] was 6.512 (4.414–7.565) L/h and the “CL/F,ss, mean (min–max)” value [4] was 5.126 (4.592–6.098) L/h. For the same molecule, the “CL/F,ss, mean (min–max)” value [5] was 13.91 (10.58–18.36) L/h, the “CL/F,ss, mean (min–max)” value [6] was 7.648 (5.819–8.842) L/h and the “CL/F,ss, mean (min–max)” value [7] was 6.087 (4.160–7.894) L/h. For the same molecule, the “CL/F, mean (min–max)” value (single oral administration, 50 mg larotinib mesylate) was 62.01 (54.17–71.3) L/h, the “CL/F, mean (min–max)” value (single oral administration, 100 mg larotinib mesylate) was 73.81 (62.61–90.83) L/h and the “CL/F, mean (min–max)” value (single oral administration, 150 mg larotinib mesylate) was 29.11 (18.30–38.09) L/h. The “CL/F, mean (min–max)” value (single oral administration, 220 mg larotinib mesylate) was 27.79 (24.27–33.83) L/h, the “CL/F, mean (min–max)” value (single oral administration, 300 mg larotinib mesylate) was 63.76 (30.15–116.4) L/h and the “CL/F, mean (min–max)” value (single oral administration, 350 mg larotinib mesylate) was 55.78 (36.19–73.27) L/h. For the same molecule, the “CL/F, mean (min–max)” value (single oral administration, 400 mg larotinib mesylate) was 70.47 (29.90–145.6) L/h.
